Assay results published in ChEMBL document CHEMBL5053520, “Searching for an ideal SERM: Mining tamoxifen structure-activity relationships” (Bioorg Med Chem Lett, 2021).

target: T1, Estrogen receptor (Homo sapiens, UniProt P03372); experiment: Displacement of fluorescent labeled-ligand from ERalpha (unknown origin) by competitive binding assay
T1 sequence (P03372 whole entry): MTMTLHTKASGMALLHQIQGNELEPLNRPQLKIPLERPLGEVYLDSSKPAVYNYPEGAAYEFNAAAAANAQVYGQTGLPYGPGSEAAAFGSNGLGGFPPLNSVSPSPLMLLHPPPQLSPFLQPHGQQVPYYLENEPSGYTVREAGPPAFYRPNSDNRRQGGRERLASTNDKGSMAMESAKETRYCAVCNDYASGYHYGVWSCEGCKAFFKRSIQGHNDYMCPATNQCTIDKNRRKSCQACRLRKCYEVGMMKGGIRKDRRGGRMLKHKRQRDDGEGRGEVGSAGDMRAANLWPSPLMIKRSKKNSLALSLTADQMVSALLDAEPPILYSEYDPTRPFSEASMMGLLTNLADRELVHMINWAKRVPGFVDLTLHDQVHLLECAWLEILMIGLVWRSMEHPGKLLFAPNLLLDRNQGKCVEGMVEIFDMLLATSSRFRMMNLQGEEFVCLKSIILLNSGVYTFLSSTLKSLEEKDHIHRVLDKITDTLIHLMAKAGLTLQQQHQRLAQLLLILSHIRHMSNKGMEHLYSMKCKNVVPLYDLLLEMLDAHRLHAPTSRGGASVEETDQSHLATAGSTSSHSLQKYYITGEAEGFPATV

| SMILES | IC50 |
| --- | --- |
| CC/C(=C(\c1ccccc1)c1cccc(OCCCN2CCCCC2)c1)c1ccccc1 | 333 nM |
| CC/C(=C(\c1ccc(O)cc1)c1cccc(OCCN(CC)CC)c1)c1ccccc1 | 35.5 nM |
| CC/C(=C(\c1ccccc1)c1cccc(OCCCN(CC)CC)c1)c1ccccc1 | 348 nM |
| CC/C(=C(\c1ccc(O)cc1)c1cccc(OCCN2CCCCC2)c1)c1ccccc1 | 21 nM |
| CC/C(=C(\c1ccc(O)cc1)c1cccc(OCCCN(C)C)c1)c1ccccc1 | 8.8 nM |
| CC/C(=C(\c1ccccc1)c1cccc(OCCN2CCCC2)c1)c1ccccc1 | 81 nM |
| CC/C(=C(\c1ccc(O)cc1)c1cccc(OCCCN2CCCC2)c1)c1ccccc1 | 10.7 nM |
| CC/C(=C(\c1ccccc1)c1cccc(OCCCN(C)C)c1)c1ccccc1 | 124 nM |
| CC/C(=C(\c1ccc(O)cc1)c1cccc(OCCN2CCCC2)c1)c1ccccc1 | 16.3 nM |
| CC/C(=C(\c1ccc(O)cc1)c1cccc(OCCN(C)C)c1)c1ccccc1 | 24.3 nM |
| CC/C(=C(\c1ccccc1)c1cccc(OCCN(C)C)c1)c1ccccc1 | 255 nM |
| CC/C(=C(\c1ccccc1)c1cccc(OCCN2CCCCC2)c1)c1ccccc1 | 422 nM |
| CC/C(=C(\c1ccc(O)cc1)c1cccc(OCCCN(CC)CC)c1)c1ccccc1 | 15.1 nM |
| CC/C(=C(\c1ccccc1)c1cccc(OCCCN2CCCC2)c1)c1ccccc1 | 359 nM |
| CC/C(=C(\c1ccc(O)cc1)c1cccc(OCCCN2CCCCC2)c1)c1ccccc1 | 39.1 nM |
| CC/C(=C(\c1ccccc1)c1cccc(OCCN(CC)CC)c1)c1ccccc1 | 571 nM |
